Reference: patent US8809366B2, “Thienopyridine ester derivative containing cyano group, preparation method, use and composition thereof” (Tianjin Institute of Pharmaceutical Research, priority 2011, dated 2014)

How the values were obtained:
[1] = 1000 mg/kg intragastric once a day; from the third day of administration
Method: Two Weeks of Toxicity Studies on Rats (Compared with Clopidogrel)
100 mg/ml suspension is prepared before use, and administrated intragastricly at 1 ml/100 g every morning.
Experimental animals: SD rats weighing about 180 g, 7 female and 7 male in each group.
The same amount of solvent is administrated intragastricly to the blank control group, and equal-dose (1000 mg/kg) of Clopidogrel is administrated intragastricly to the positive control group.

[2] = tested on: ADP-induced platelet aggregation; test: Inhibiting effect on rat platelet aggregation (ADP-induced, PRP taken 2 h after intragastric administration); assay type: in vivo, Wistar rats; conditions: blood 2 h after administration, ADP final concentration 1.08 μM, X ± SD
Method: Experiments of Inhibiting Effect on Rat Platelet Aggregation:
ADP: produced by SIGMA Co.
Wistar rats: SPF grade, male, provided by The Institute of Laboratory Animal Science, Chinese Academy of Medical Sciences, license No. SCXK (jing) 2005-0013.
PAM-3 Dual Channel Platelet Aggregometer: produced by Jiangsu Danyang Radio Factory.
Healthy male Wistar rats weighing 200-250 g were selected and randomly divided into groups. The experiments were carried out in three batches, and each batch was distributed into a normal control group and 6 compound groups, and totally two dose groups were tested in each batch. […] Intragastric administration with a dose volume of 10 ml/kg·bw was used. The normal control group was given the same amount of 0.5% CMC-Na. 2 h after administration, 40 mg/kg of pentobarbital sodium was intraperitoneally injected (1 ml/kg) for anesthesia, and blood was collected from the abdominal aorta. 3.8% sodium citrate was used for anticoagulation, and platelet-rich plasma (PRP) and platelet-poor plasma (PPP) were prepared respectively. Maximum percentage of ADP (final concentration: 1.08 μM) induced platelet aggregation was tested on a PAM-3 Dual Channel Platelet Aggregometer.

[3] = rat, in vivo
[4] = 15 mg/kg intragastric, n=10, control group 74.2 ± 20.8
[5] = 30 mg/kg intragastric, n=6, control group 47.1 ± 14.2

| SMILES | hemorrhagic secretions around the rats' nasal [1] | Maximum percentage of aggregation [2, 4] [%] | Maximum percentage of aggregation [2, 5] [%] | conversion rate into active metabolites thiols, higher than Clopidogrel [3] | time to peak concentration of active metabolites [3] [min] |
| --- | --- | --- | --- | --- | --- |
| COC(=O)[C@H](c1ccccc1Cl)N1CCc2sccc2C1 [Clopidogrel, reference compound] | hemorrhagic secretions around the rats' nasal can be observed |  |  |  |  |
| CC(=O)Oc1cc2c(s1)CCN(Cc1ccccc1C#N)C2 [Compound I-1, (5-(2-cyanobenzyl)-4,5,6,7-tetrahydrothieno[3,2-c]pyridin-2-yl)acetate] | obviously slight in the compound I-1 group than in the Clopidogrel group | 20.5 ± 25.5 | 8.4 ± 8.3 | about 5 times | 50 to 60 |
| CC(=O)Oc1cc2c(s1)CCN(Cc1cccc(C#N)c1)C2 [Compound I-2, (5-(3-cyanobenzyl)-4,5,6,7-tetrahydrothieno[3,2-c]pyridin-2-yl)acetate] |  | 29.8 ± 24.3 | 4.9 ± 28.4 | about 5 times | 50 to 60 |
| CC(=O)Oc1cc2c(s1)CCN(Cc1ccc(C#N)cc1)C2 [Compound I-3] |  | 22.7 ± 24.1 | 8.7 ± 17.8 | about 5 times | 50 to 60 |
